How the values were obtained:
Experiment in all cases: Microbial challenge testing in BPW
Format in all cases: cell-based
Aspergillus niger = tested on: Aspergillus niger
Protocol: (§1) The microorganisms used in challenge tests are given in Table 3, designated as either ATCC (American Type Culture Collection) or wild type. These wild type organisms were problematic organisms previously isolated from chemical products. In the description for each organism, the bacteria are indicated as either GN (Gram negative) or GP (Gram positive).
(§2) All of the microorganisms were grown in Tryptose Soy Broth (TSB), DIFCO™ available from Becton, Dickinson and Company, containing 1% dextrose. Aspergillus niger and Candida albicans were incubated at 22° C.±2° C. for at least 96 hours. All bacteria were incubated at 35° C.±2° C. in a humidified incubator for at least 96 hours.
Aspergillus niger and Candida albicans were also grown on Sabouraud dextrose agar (SDA) at 22° C.±2° C. for 7 to 14 days or until full sporulation was achieved.
(§3) The following procedure was followed to determine the amount of each challenge material (inoculum broth) required to produce a 10^8 cfu/mL challenge, which is equivalent to a final test-sample microbial concentration of 10^5 to 10^6 cfu (colony-forming units)/mL.
(§4) Using a sterile serological pipette, 1 mL of the growth from each TSB culture was transferred into tubes containing 9 mL phosphate buffer (pH 7.2) and mixed thoroughly. This process was repeated to make serial 1:10 dilutions. Then 0.1 mL of each sample and dilution was inoculated onto agar plates to produce the equivalent of a further 1:10 dilution. C. albicans and A. niger were inoculated onto SDA and bacteria were inoculated onto Plate Count Agar (PCA), DIFCO™ available from Becton, Dickinson and Company. The 0.1 mL aliquots were evenly distributed on the plates using the spread-plate technique. The spread-plate technique is performed by spreading the aliquot over the entire plate surface using a sterile spreading rod while rotating the plate with a rotary auto-plater. After the inoculum was absorbed completely, each plate was inverted and incubated (fungi at 22° C.±2° C. and bacteria at 35° C.±2° C.).
(§5) After incubation for at least 48 hours, colonies that had developed on the agar plates were counted and recorded with the corresponding dilution. If counting had to be delayed temporarily, plates were refrigerated, preferably no more than 24 hours, until they could be counted. The number of cfu/mL was determined by multiplying the count by the dilution factor for that particular plate.
(§6) Turbidity in Nepholemetric Turbidity Units (NTU) was measured for each serial dilution using the HF-Micro 100 Model Turbidimeter. For each microorganism, the plate counts were compared to the turbidity readings.
Aspergillus niger cultures were harvested and spores dislodged from the SDA on which they were grown by rubbing the growth gently with a sterile inoculating loop. The spores were then mixed into the broth culture that had been incubated with a sterile magnetic stir bar to reduce pellicle formation. The spore-culture mixture was filtered repeatedly through sterile, non-absorbent cotton and harvested repeatedly, adjusting vegetative cells and spores to a level of 1.0×10^8. A hemocytometer was used to verify the final challenge concentration.
(§7) Control substrates (“broth alone”) were prepared for each microorganism separately in triplicate by adding 13.5 mL of BPW (pH 7.0) containing 1% (w/v) dextrose to each 20-mL glass tube; then adding 1.5 mL challenge material to produce a final concentration at time zero of 10^5 to 10^6 cfu/mL and a total volume of 15 mL.
Test sample substrates were prepared containing each test material (1,4-CHDM, etc) or combination of test materials at the concentrations shown in Tables 5 and 6.

Bacillus subtilis = tested on: Bacillus subtilis
Protocol: as §1, §2, §3, §4, §5, §6, §7
(§8) Test sample substrates were prepared containing each test material (1,4-CHDM, etc) or combination of test materials at the concentrations shown in Tables 5 and 6. Sample substrates were prepared in triplicate, except those substrates containing PE or CG which were prepared in duplicate. Substrates were prepared by adding BPW containing 1% (w/v) dextrose to each 20-mL glass tube, then adding the test material in the amount appropriate to achieve the desired weight/volume percent (g/100 mL) and to obtain a total volume of BPW with dextrose and test material of 13.5 mL. Then 1.5 mL challenge material was added to produce a final concentration at time zero of 10^5 to 10^6 cfu/mL of the respective organism and a total test sample substrate volume of 15 mL.
(§9) After mixing, all challenged substrates were incubated at 35° C.±2° C. for 14 days and then at ambient room temperature.

Proteus vulgaris = tested on: Proteus vulgaris
Protocol: as §1, §2, §3, §4, §5, §6, §7, §8, §9

Aeromonas sp. = tested on: Aeromonas sp.
Protocol: as §1, §2, §3, §4, §5, §6, §7, §8, §9

Streptococcus mutans = tested on: Streptococcus mutans
Protocol: as §1, §2, §3, §4, §5, §6, §7, §8, §9

[1] = tested on: Staphylococcus epidermidis; details: 0.05%
Protocol: as §1, §2, §3, §4, §5, §6, §7, §8, §9

O=c1[nH]sc2ccccc12 [BIT, 1,2-benzisothiazolin-3-one]
Grade code A. niger (Aspergillus niger; 0.05%, 3 days incubation): 4
Grade code A. niger (Aspergillus niger; 0.05%, 13 days incubation): 4
Grade code A. niger (Aspergillus niger; 0.05%, 30 days incubation): 4
Grade code A. niger (Aspergillus niger; 0.2%, 3 days incubation): 4
Grade code A. niger (Aspergillus niger; 0.2%, 13 days incubation): 4
Grade code A. niger (Aspergillus niger; 0.2%, 30 days incubation): 4
Grade code B. subtilis (Bacillus subtilis; 0.05%, 3 days incubation): 4 (1001 to 10,000 colonies (thus 10,000 cfu/mL to 100,000 cfu/mL))
Grade code B. subtilis (Bacillus subtilis; 0.05%, 14 days incubation): 4 (1001 to 10,000 colonies (thus 10,000 cfu/mL to 100,000 cfu/mL))
Grade code B. subtilis (Bacillus subtilis; 0.05%, 30 days incubation): 4 (1001 to 10,000 colonies (thus 10,000 cfu/mL to 100,000 cfu/mL))
Grade code B. subtilis (Bacillus subtilis; 0.2%, 3 days incubation): 4 (1001 to 10,000 colonies (thus 10,000 cfu/mL to 100,000 cfu/mL))
Grade code B. subtilis (Bacillus subtilis; 0.2%, 14 days incubation): 4 (1001 to 10,000 colonies (thus 10,000 cfu/mL to 100,000 cfu/mL))
Grade code B. subtilis (Bacillus subtilis; 0.2%, 30 days incubation): 4 (1001 to 10,000 colonies (thus 10,000 cfu/mL to 100,000 cfu/mL))
Grade code P. vulqaris (Proteus vulgaris; 0.05%, 3 days incubation): 4 (1001 to 10,000 colonies (thus 10,000 cfu/mL to 100,000 cfu/mL))
Grade code P. vulqaris (Proteus vulgaris; 0.05%, 13 days incubation): 4 (1001 to 10,000 colonies (thus 10,000 cfu/mL to 100,000 cfu/mL))
Grade code P. vulqaris (Proteus vulgaris; 0.05%, 30 days incubation): 4 (1001 to 10,000 colonies (thus 10,000 cfu/mL to 100,000 cfu/mL))
Grade code P. vulqaris (Proteus vulgaris; 0.2%, 3 days incubation): 4 (1001 to 10,000 colonies (thus 10,000 cfu/mL to 100,000 cfu/mL))
Grade code P. vulqaris (Proteus vulgaris; 0.2%, 13 days incubation): 2 (52 to 100 colonies counted (thus 520 to 1000 cfu/mL))
Grade code P. vulqaris (Proteus vulgaris; 0.2%, 30 days incubation): 0 (No growth detected or <1 colony (thus <10 cfu/mL))
Grade code Aeromonas sp (Aeromonas sp.; 0.05%, 3 days incubation): 5 (More than 10,000 colonies estimated (thus >100,000 cfu/mL))
Grade code Aeromonas sp (Aeromonas sp.; 0.05%, 14 days incubation): 4 (1001 to 10,000 colonies (thus 10,000 cfu/mL to 100,000 cfu/mL))
Grade code Aeromonas sp (Aeromonas sp.; 0.05%, 30 days incubation): 4 (1001 to 10,000 colonies (thus 10,000 cfu/mL to 100,000 cfu/mL))
Grade code Aeromonas sp (Aeromonas sp.; 0.2%, 3 days incubation): 4 (1001 to 10,000 colonies (thus 10,000 cfu/mL to 100,000 cfu/mL))
Grade code Aeromonas sp (Aeromonas sp.; 0.2%, 14 days incubation): 2 (52 to 100 colonies counted (thus 520 to 1000 cfu/mL))
Grade code Aeromonas sp (Aeromonas sp.; 0.2%, 30 days incubation): 2 (52 to 100 colonies counted (thus 520 to 1000 cfu/mL))
Grade code S. mutans (Streptococcus mutans; 0.05%, 3 days incubation): 1.7
Grade code S. mutans (Streptococcus mutans; 0.05%, 13 days incubation): 0 (No growth detected or <1 colony (thus <10 cfu/mL))
Grade code S. mutans (Streptococcus mutans; 0.05%, 30 days incubation): 0 (No growth detected or <1 colony (thus <10 cfu/mL))
Grade code S. mutans (Streptococcus mutans; 0.2%, 3 days incubation): 0 (No growth detected or <1 colony (thus <10 cfu/mL))
Grade code S. mutans (Streptococcus mutans; 0.2%, 13 days incubation): 0 (No growth detected or <1 colony (thus <10 cfu/mL))
Grade code S. mutans (Streptococcus mutans; 0.2%, 30 days incubation): 0 (No growth detected or <1 colony (thus <10 cfu/mL))
Effectiveness against S. mutans (in words) (Streptococcus mutans; BIT alone): highly effective
Grade code S. epidermidis ([1]; 3 days incubation): 4 (1001 to 10,000 colonies (thus 10,000 cfu/mL to 100,000 cfu/mL))
Grade code S. epidermidis ([1]; 13 days incubation): 4 (1001 to 10,000 colonies (thus 10,000 cfu/mL to 100,000 cfu/mL))
